Source: patent US11963527B2, “Compounds, compositions, and methods for altering insect and organism behavior” (BASF Corporation, priority 2013, dated 2024)

Tests used:
[1] = test system: honeybees; assay: Honeybee repulsion feeding station experiment, repellent in 50% sucrose solution; type: in vivo; details: 2% by weight with 50% sucrose
Procedure: FIG. 1 describes the feeding station arrangement (A and B) for the honeybee repulsion experiments described herein. As set forth in FIG. 1, panel (A) sets forth the bee cage positions on the left portion of panel (A) with the randomized feeding station positions on the right portion of panel (A). Panel (B) sets forth an alignment of the randomized feeding station positions with a distance of two meters between feeding stations. A total of eight feeding stations were evaluated at a ten meter distance in front of the respective bee hives. The feeding stations were placed two meters apart from one another.
Honeybees were trained to deep feeders (eight positions), each containing a 50% sucrose solution for one day. After the honeybees were trained to each feeder, the 50% sucrose feeder at randomized positions 1-8 was replaced with a shallow feeder containing a combination of repelling compounds and a 50% sucrose solution according to Table 5. In accordance with FIGS. 5 and 6, 2% by weight of Camphor oil (T4), Ajowan oil (T5), Camphor powder (T6), Rosemary oil (T7), and 2-Decanone (T8) in combination with a 50% sucrose treatment were added to feeders on day two.
Table 5 describes active agents evaluated for bee repulsion and their randomized feeding station positions. As described in Table 5, T1 (control), T2 (control), T3 (control), T4 (Camphor oil), T5 (Ajowan oil), T6 (Camphor powder), T7 (Rosemary oil), and T8 (2-Decanone).
FIG. 5 evaluates the number of bees visiting a respective feed station over a time interval. FIG. 6 sets forth the mean number of honeybees visiting feeding station over a period of four hours.

[2] = Stability test of Poncho 600 with Eugenol, clothianidin content by HPLC; type: physicochemical; details: combined with Eugenol; up to 54° C. for seven days
Procedure: Table 6 describes a stability test with a combination of Eugenol and Poncho evaluated at room temperature, 40° C., and 54° C. at zero time, 3 days, and 7 days as confirmed by high performance liquid chromatography (HPLC).

[3] = Stability test of Poncho 600 with α-terpineol, clothianidin content by HPLC; type: physicochemical; details: combined with alpha-terpineol; up to 54° C. for eight days
Procedure: Table 7 describes a stability test with a combination of α-terpineol and Poncho 600 evaluated at room temperature, 40° C., and 54° C. at zero time, 2 days, and 8 days as confirmed by HPLC.

CCCCCCCCC(C)=O [Compound 2-decanone, 2-decanone]
repellency to honeybees over the full 4 hour assessment period ([1]; 4 hours): highly repellent
repellency to honeybees at 24 hours [1]: still repellent
repellency to honeybees at 24 hours ([1]; listed as 2-Decanone): exhibited repellency

CN/C(=N\[N+](=O)[O-])NCc1cnc(Cl)s1 [clothianidin]
chemical stability of clothianidin content [2]: exhibited chemical stability
chemical stability of clothianidin content [3]: exhibited chemical stability
